Data reported in patent US5696112A, “Fused heterocyclic azepines as vasopressin antagonists” (American Cyanamid Company, priority 1995, dated 1997).
Read-outs that look alike come from different tables or passages of the source.

Legend:
[1] = target: T1, oxytocin receptors (Rattus norvegicus, UniProt P70536); experiment: Oxytocin Receptor Binding; parameters: species or system Sprague-Dawley rats; details: for IC50: 1.0 nM [3H]oxytocin
T1 construct: The uteri are dissected out, cleaned of fat and connective tissues; from tissue; host or cells: uterus membranes of DES-treated female Sprague-Dawley rats
T1 sequence (P70536 1-388): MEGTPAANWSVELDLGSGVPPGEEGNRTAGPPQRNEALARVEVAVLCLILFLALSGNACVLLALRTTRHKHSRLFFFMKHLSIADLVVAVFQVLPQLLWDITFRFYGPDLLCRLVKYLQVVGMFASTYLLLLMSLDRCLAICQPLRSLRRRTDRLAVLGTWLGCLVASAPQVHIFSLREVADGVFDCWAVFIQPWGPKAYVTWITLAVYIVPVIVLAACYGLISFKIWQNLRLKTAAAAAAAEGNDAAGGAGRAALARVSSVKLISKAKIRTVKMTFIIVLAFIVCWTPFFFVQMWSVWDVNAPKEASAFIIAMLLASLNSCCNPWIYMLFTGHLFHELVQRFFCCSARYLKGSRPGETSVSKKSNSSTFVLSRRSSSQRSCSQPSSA
In short: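 Membranes from uteri of DES-primed (0.3 mg/kg i.m., 18 h) female Sprague-Dawley rats incubated 60 min at 22 °C with 1.0 nM [3H]oxytocin in 50 mM Tris.HCl pH 7.4, 5 mM MgCl2 plus protease inhibitors; nonspecific binding with 1.0 uM oxytocin. IC50 from displacement after filtration.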

[2] = tested on: Vasopressin V1; experiment: Vasopressin V1 Antagonist Activity in Conscious Rats (vasopressin vasopressor response); format: in vivo, rat; details: for inhibition in vivo at 20 mg/kg / inhibition in vivo at 10 mg/kg / inhibition in vivo at 30 mg/kg: Rattus norvegicus, read-out: Vasopressin vasopressor response, Max. % Inhibition
Method: Vasopressin V1 Antagonist Activity in Conscious Rats Conscious rats are restrained in a supine position with elastic tape. The area at the base of the tail is locally anesthetization by subcutaneous infiltration with 2% procaine (0.2 ml). Using aseptic technique the ventral caudal tail artery is isolated and a cannula made of PE 10 and 20 (heat-fused) tubing is passed into the lower abdominal aorta. The cannula is secured, heparinized (1000 i.u./cc), sealed and the would closed with one or two stitches of Dexon 4-0. The caudal vein is also cannulated in the same manner for intravenous drug administration. The duration of the surgery is approximately 5 minutes. Additional local anesthesia (2% procaine or lidocaine) is provided as needed. The animals are placed in plastic restraining cages in an upright position. The cannula is attached to a […] pressure transducer and pulsatile blood pressure is recorded. […] Percentage of antagonism by the compound is calculated using the pre-drug vasopressin vasopressor response as 100%.

[3] = target: T2, Rat Hepatic V1 Receptors (vasopressin V1) (Rattus norvegicus, UniProt P30560); experiment: Binding Assay to Rat Hepatic V1 Receptors; details: rat hepatic V1, [3H]vasopressin
T2 construct: Rat liver plasma membranes expressing the vasopressin V1 receptor subtypes are isolated by sucrose density gradient; from tissue; host or cells: rat liver plasma membranes
Method: Binding Assay to Rat Hepatic V1 Receptors
Rat liver plasma membranes expressing the vasopressin V1 receptor subtypes are isolated by sucrose density gradient according to the method described by Lesko et al., (1973). These membranes are quickly suspended in 50.0 mMTris.HCl buffer, pH 7.4, containing 0.2% bovine serum albumin (BSA) and 0.1 mM phenylmethylsulfonylfluoride (PMSF) and kept frozen at -70° C. until used in subsequent binding experiments. For binding experiments, the following is added to the wells of a ninety-six well format microtiter plate: 100 μl of 100.0 mM Tris.HCl buffer containing 10.0 mM MgCl2, 0.2% heat inactivated BSA and a mixture of protease inhibitors: leupeptin, 1.0 mg %; aprotinin, 1.0 mg %, 1,10-phenanthroline,2.0 mg %; trypsin inhibitor, 10.0 mg % and 0.1 mM PMSF, 20.0 μl of [phenylalanyl-3,4,5-^3 H]vasopressin (S.A. 45.1 Ci/mmole) at 0.8 nM, and the reaction initiated by the addition of 80 μl of tissue membranes containing 20 μg of tissue protein. The plates are kept undisturbed on the bench top at room temperature for 120 min. to reach equilibrium. Nonspecific samples are assayed in the presence of 0.1 μM of the unlabeled antagonist phenylalanylvasopressin, added in 20.0 μl volume to a final incubation volume of 200 μl. Upon completion of binding, the content of each well is filtered off, using a Brandel® cell Harvester (Gaithersburg, Md.). The radioactivity trapped on the filter disk by the ligand-receptor complex is assessed by liquid scintillation counting in a Packard LS Counter, with an efficiency of 65% for tritium. The data are analyzed for IC50 values by the LUNDON-2 program for competition (LUNDON SOFTWARE, OH).

T2 sequence (P30560 whole entry): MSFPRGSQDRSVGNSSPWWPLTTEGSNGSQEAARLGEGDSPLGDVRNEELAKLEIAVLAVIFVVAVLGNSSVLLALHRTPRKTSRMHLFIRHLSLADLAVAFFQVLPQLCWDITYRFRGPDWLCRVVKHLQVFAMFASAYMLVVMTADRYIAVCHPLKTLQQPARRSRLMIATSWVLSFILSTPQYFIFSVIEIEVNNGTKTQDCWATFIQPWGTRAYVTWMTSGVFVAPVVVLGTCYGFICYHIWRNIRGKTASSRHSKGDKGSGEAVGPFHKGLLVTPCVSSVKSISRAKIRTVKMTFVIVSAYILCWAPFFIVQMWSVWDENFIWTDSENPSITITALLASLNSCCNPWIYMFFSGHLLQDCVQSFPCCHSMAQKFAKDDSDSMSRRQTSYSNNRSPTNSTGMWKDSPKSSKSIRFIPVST

| SMILES | IC50 [1] [µM] | inhibition at 10 µM [1] [%] | IC50 [3] [µM] | inhibition at 1.25 µM ([1]; 1.25 μM) [%] | Time (Min) of Max. % Inhibition ([2]; 20 mg/kg iv) [min] | inhibition in vivo at 20 mg/kg ([2]; 20 mg/kg iv) [%] | Time (Min) of Max. % Inhibition ([2]; 10 mg/kg iv) [min] | inhibition in vivo at 10 mg/kg ([2]; 10 mg/kg iv) [%] | Time (Min) of Max. % Inhibition ([2]; 30 mg/kg iv) [min] | inhibition in vivo at 30 mg/kg ([2]; 30 mg/kg iv) [%] | Time (Min) of Max. % Inhibition ([2]; 30 mg/kg po) [min] | inhibition in vivo at 30 mg/kg ([2]; 30 mg/kg po) [%] |
| --- | --- | --- | --- | --- | --- | --- | --- | --- | --- | --- | --- | --- |
| Cc1ccc(F)cc1C(=O)Nc1ccc(C(=O)N2CCCCc3sccc32)c(Cl)c1 [Example 70, N-[4-[(5,6,7,8-Tetrahydro-4H-thieno[3,2-b]azepin-4-yl)carbonyl]-3-chlorophenyl]-5-fluoro-2-methylbenzamide] | 0.51 | 97 |  |  | 120 | 67 |  |  |  |  |  |  |
| Cc1ccccc1C(=O)Nc1ccc(C(=O)N2CCCCc3sc(Cl)cc32)cc1 [Example 96, N-[4-[(2-Chloro-5,6,7,8-tetrahydro-4H-thieno[3,2-b]azepin-4-yl)carbonyl]phenyl]-2-methylbenzamide] | 0.27 |  | 0.088 | 58 |  |  | 90 | 65 |  |  |  |  |
| Cc1c(F)cccc1C(=O)Nc1ccc(C(=O)N2CCCCc3sc(Cl)cc32)cc1 [Example 94, N-[4-[(2-Chloro-5,6,7,8-tetrahydro-4H-thieno[3,2-b]azepin-4-yl)carbonyl]phenyl]-3-fluoro-2-methylbenzamide] | 0.95 | 97 | 0.16 |  | 90 | 74 |  |  |  |  |  |  |
| O=C(Nc1ccc(C(=O)N2CCCCc3sc(Cl)cc32)cc1)c1c(Cl)cccc1Cl [Example 95, N-[4-[(2-Chloro-5,6,7,8-tetrahydro-4H-thieno[3,2-b]azepin-4-yl)carbonyl]phenyl]-2,6-dichlorobenzamide] | 1.38 | 85 |  |  |  |  | 30 | 61 |  |  |  |  |
| O=C(Nc1ccc(C(=O)N2CCCCc3sc(Cl)cc32)cc1)c1ccc(Cl)cc1Cl [Example 93, 2,4-Dichloro-N-[4-[(2-chloro-5,6,7,8-tetrahydro-4H-thieno[3,2-b]azepin-4-yl)carbonyl]phenyl]benzamide] | 1.8 | 83 | 0.23 |  | 90 | 77 |  |  |  |  |  |  |
| O=C(Nc1ccc(C(=O)N2CCCCc3sccc32)c(Cl)c1)c1ccc(Cl)cc1Cl [Example 68, N-[4-[(5,6,7,8-Tetrahydro-4H-thieno[3,2-b]azepin-4-yl)carbonyl]-3-chlorophenyl]-2,4-dichlorobenzamide] |  | 55 |  |  | 120 | 50 |  |  |  |  |  |  |
| Cc1ccccc1CC(=O)Nc1ccc(C(=O)N2CCCCc3sccc32)cc1 [Example 13, N-[4-[(5,6,7,8-Tetrahydro-4H-thieno[3,2-b]azepin-4-yl)carbonyl]phenyl]2-methylbenzeneacetamide] | 0.68 | 95 | 0.014 |  |  |  | 60 | 80 |  |  |  |  |
| O=C(Nc1ccc(C(=O)N2CCCCc3sccc32)cc1)c1cc(Cl)ccc1Cl [Example 9, N-[4-[(5,6,7,8-Tetrahydro-4H-thieno[3,2-b]azepin-4-yl)carbonyl]phenyl]2,5-dichlorobenzamide] | 5.2 | 60 | 0.21 |  |  |  |  |  |  |  | 180 | 17 |

Continued, in another order:

| IC50 [1] [µM] | inhibition at 10 µM [1] [%] | IC50 [3] [µM] | inhibition at 1.25 µM ([1]; 1.25 μM) [%] | SMILES | Time (Min) of Max. % Inhibition ([2]; 20 mg/kg iv) [min] | inhibition in vivo at 20 mg/kg ([2]; 20 mg/kg iv) [%] | Time (Min) of Max. % Inhibition ([2]; 10 mg/kg iv) [min] | inhibition in vivo at 10 mg/kg ([2]; 10 mg/kg iv) [%] | Time (Min) of Max. % Inhibition ([2]; 30 mg/kg iv) [min] | inhibition in vivo at 30 mg/kg ([2]; 30 mg/kg iv) [%] | Time (Min) of Max. % Inhibition ([2]; 30 mg/kg po) [min] | inhibition in vivo at 30 mg/kg ([2]; 30 mg/kg po) [%] |
| --- | --- | --- | --- | --- | --- | --- | --- | --- | --- | --- | --- | --- |
|  | 29 | 3.6 |  | Cc1ccccc1C(=O)Nc1ccc(C(=O)N2CCCC(=O)c3sccc32)cc1 [Example 157, N-[4-[(5,6,7,8-Tetrahydro-8-oxo-4H-thieno[3,2-b]azepin-4-yl)carbonyl]-phenyl]-2-methylbenzamide] | 60 | 66 |  |  |  |  |  |  |
| 0.6 | 86 |  |  | O=C(Nc1ccc(C(=O)N2CCCCc3sccc32)c(Cl)c1)c1ccc(F)cc1Cl [Example 183] |  |  |  |  | 120 | 78 |  |  |
|  | 16 | 7.6 |  | Cc1c(F)cccc1C(=O)Nc1ccc(C(=O)N2CCCC(=O)c3sccc32)cc1 [Example 155, N-[4-[(5,6,7,8-Tetrahydro-8-oxo-4H-thieno[3,2-b]azepine-4-yl)carbonyl]phenyl]-3-fluoro-2-methylbenzamide] | 60 | 62 |  |  |  |  |  |  |
|  | 0 | 5.5 |  | O=C(Nc1ccc(C(=O)N2CCCC(=O)c3sccc32)cc1)c1ccc(Cl)cc1Cl [Example 156, N-[4-[(5,6,7,8-Tetrahydro-8-oxo-4H-thieno[3,2-b]azepin-4-yl)carbonyl]-phenyl]-2,4-dichlorobenzamide] | 240 | 63 |  |  |  |  |  |  |
